Here are results for one compound from patent US12214036B2, “Combination therapy comprising AXL/MER and PD-1/PD-L1 inhibitors” (Incyte Corporation, priority 2020, dated 2025).

The target of this assay is T1, AXL (Homo sapiens, UniProt P30530).
T1 construct: tumor cell lines expressing high levels of endogenous AXL; endogenous in cells; host or cells: H1299
T1 sequence (P30530 26-894): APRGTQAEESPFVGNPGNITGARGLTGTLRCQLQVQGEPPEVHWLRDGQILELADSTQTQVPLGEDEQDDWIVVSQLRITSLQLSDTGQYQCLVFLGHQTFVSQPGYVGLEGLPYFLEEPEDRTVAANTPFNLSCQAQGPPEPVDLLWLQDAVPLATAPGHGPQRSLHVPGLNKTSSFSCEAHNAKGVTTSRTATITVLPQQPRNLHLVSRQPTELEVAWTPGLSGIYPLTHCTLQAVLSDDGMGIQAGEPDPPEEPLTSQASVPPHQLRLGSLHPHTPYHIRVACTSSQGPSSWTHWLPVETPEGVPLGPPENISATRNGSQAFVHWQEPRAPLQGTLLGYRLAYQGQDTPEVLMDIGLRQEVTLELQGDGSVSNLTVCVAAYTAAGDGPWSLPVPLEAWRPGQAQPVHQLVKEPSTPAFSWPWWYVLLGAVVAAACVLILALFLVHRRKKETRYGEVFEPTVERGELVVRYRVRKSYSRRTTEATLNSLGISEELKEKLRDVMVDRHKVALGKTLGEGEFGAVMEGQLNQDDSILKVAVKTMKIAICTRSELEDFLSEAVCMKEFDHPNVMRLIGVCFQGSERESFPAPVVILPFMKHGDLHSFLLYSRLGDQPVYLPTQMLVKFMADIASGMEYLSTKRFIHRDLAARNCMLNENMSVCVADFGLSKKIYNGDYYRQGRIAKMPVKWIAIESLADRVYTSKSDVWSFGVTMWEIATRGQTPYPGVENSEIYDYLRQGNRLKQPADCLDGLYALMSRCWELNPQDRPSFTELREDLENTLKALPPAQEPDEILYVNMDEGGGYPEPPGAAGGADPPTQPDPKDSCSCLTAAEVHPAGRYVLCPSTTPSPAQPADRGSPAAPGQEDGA
The assay can be described thus: pAXL inhibition assay in H1299 cells (ELISA). It counts as cell-based. Conditions: rhGAS6 stimulation, N=19 (FIG. 2). As to the method:
The ability of Compound 1 to modulate AXL activity was evaluated in tumor cell lines expressing high levels of endogenous AXL.
H1299 cells were plated (30,000 cells/well) in 96-well tissue-culture plates (Costar, Corning Incorporated, Corning, N.Y.) and incubated overnight at 37° C. with 5% CO2. Compound 1 at an appropriate concentration was added and incubated for 1 hour at 37° C. with 5% CO2. rhGAS6 (R&D Systems, Minneapolis, Minn.; #885-GSB) was added at 1 μg/mL to each well, and plates were incubated at 37° C. with 5% CO2 for 15 minutes. Cells were harvested and lysed in 110 μL of ice-cold lysis buffer (Cell Signaling Technology, Danvers, Mass.; #9803) with protease and phosphatase inhibitors (ThermoFisher Scientific; #78446) for 1 hour on ice and stored at −80° C. for ELISA. ELISA plates were prepared by incubating Greiner lumitrac high-binding plates with 8 μg/mL of anti-AXL antibody (R&D Systems; MAB154) overnight at room temperature. The plates were washed and blocked with phosphate buffered saline (PBS) with 0.1% BSA. Cell lysates were loaded onto ELISA plates and incubated 2 hours at room temperature. […] The plates were gently shaken for 15 minutes at room temperature and read on the PheraStar (BMG Labtech). […]
(An ELISA detects its analyte on a solid surface through an enzyme-linked reagent.)

Structures are written as SMILES.

As for `CC(C)C(=O)N1CCC(c2cc(-c3ccc(NC(=O)c4cn(C(C)C)c(=O)n(-c5ccccn5)c4=O)cc3)c3c(N)ncnn23)CC1` [Compound 1, N-(4-(4-Amino-7-(1-isobutyrylpiperidin-4-yl)pyrrolo[1,2-f][1,2,4]triazin-5-yl)phenyl)-1-isopropyl-2,4-dioxo-3-(pyridin-2-yl)-1,2,3,4-tetrahydropyrimidine-5-carboxamide], half-maximal inhibition (IC50) was put at 1.8 ± 0.63 nM.

Usually IC50 stands for the concentration needed to halve the response being measured. Read a high IC50 as weaker potency.
